Where “and” joins values, the source holds several entries; their conditions need not be identical. Equal values may be shown once.
What was measured:
[1] = Plasma kinetics of ivermectin after oral administration of Cardomec to dogs; format: in vivo, dog
Procedure: Five male Beagle dogs received a dose of approximately 6 μg.kg^−1 of ivermectin, i.e., one 68 μg Cardomec® tablet per dog. The animals were fasted prior to administration and up to 6 hours after treatment to prevent a possible interaction with food.
(§1) Blood samples were collected at intervals up to 28 days post-dosing. The determination of ivermectin in dog plasma was carried out by HPLC using fluorescence detection after derivatization. The limit of quantification was 100 pg.ml^−1.

[2] = Plasma kinetics of ivermectin after subcutaneous injection of Ivomec to dogs; format: in vivo, dog; settings: for Plasma concentrations of ivermectin / Plasma concentrations of ivermectin, Mean: Ivomec subcutaneous 400 μg.kg^−1, dogs; for Plasma concentrations of ivermectin: individual dogs
Procedure: This study was conducted in order to assess the pharmacokinetics of ivemectin in the dog after subcutaneous administration of Ivomec® at a dose of 400 μg.kg^−1 of ivermectin which is known to be effective on gastrointestinal nematodes and to have a route of reference for further development.
as §1, with “Five male Beagle dogs were injected a subcutaneous dose of 400 μg.kg^−1 of ivermectin. Blood” for “Blood”, “56” for “28”, “HPLC,” for “HPLC”

[3] = Cardomec oral 6 μg.kg^−1, 5 fasted dogs, mean
[4] = Cardomec oral 6 μg.kg^−1, 5 fasted dogs, range over dogs
[5] = Cardomec oral 6 μg.kg^−1, fasted dogs, individual dogs
[6] = Ivomec subcutaneous 400 μg.kg^−1, 5 dogs, mean

## ivermectin
[1]; [3]
  AUC(0-t), Mean: 1534 pg·days/mL
  AUC(0-∞), Mean: 1859 pg·days/mL
  AUC, mean: 44.604 ng·h/mL
  Cmax, Mean: 1.362 ng/mL
[1]; [4]
  AUC(0-t), Range: [187-3246] pg.d.ml^−1
  AUC(0-∞), Range: [382-3789] pg.d.ml^−1
[1]; Cardomec oral 6 μg.kg^−1, fasted dogs, 0 h, mean of 5 dogs
  Plasma concentrations of ivermectin, Mean: BLQ (Below the Limit of Quantification (100 pg.ml^−1))
[1]; Cardomec oral 6 μg.kg^−1, fasted dogs, 0.75 h, mean of 5 dogs (BLQ taken as 0)
  Plasma concentrations of ivermectin, Mean: 0.119 ng/mL
[1]; Cardomec oral 6 μg.kg^−1, fasted dogs, 1.5 h, mean of 5 dogs (BLQ taken as 0)
  Plasma concentrations of ivermectin, Mean: 0.536 ng/mL
[1]; Cardomec oral 6 μg.kg^−1, fasted dogs, 2 h, individual dogs
  Plasma concentrations of ivermectin: 1132 pg.ml^−1 and 674 pg.ml^−1 and BLQ (Below the Limit of Quantification (100 pg.ml^−1)) and 1817 pg.ml^−1 and 264 pg.ml^−1
[1]; Cardomec oral 6 μg.kg^−1, fasted dogs, 2 h, mean of 5 dogs (BLQ taken as 0)
  Plasma concentrations of ivermectin, Mean: 0.777 ng/mL
[1]; Cardomec oral 6 μg.kg^−1, fasted dogs, 3 h, mean of 5 dogs
  Plasma concentrations of ivermectin, Mean: 1.199 ng/mL
[1]; Cardomec oral 6 μg.kg^−1, fasted dogs, 4 h, mean of 5 dogs
  Plasma concentrations of ivermectin, Mean: 1.098 ng/mL
[1]; Cardomec oral 6 μg.kg^−1, fasted dogs, 6 h, mean of 5 dogs
  Plasma concentrations of ivermectin, Mean: 0.956 ng/mL
[1]; Cardomec oral 6 μg.kg^−1, fasted dogs, 8 h, mean of 5 dogs
  Plasma concentrations of ivermectin, Mean: 0.769 ng/mL
[1]; Cardomec oral 6 μg.kg^−1, fasted dogs, 10 h, mean of 5 dogs
  Plasma concentrations of ivermectin, Mean: 0.798 ng/mL
[1]; Cardomec oral 6 μg.kg^−1, fasted dogs, 12 h, mean of 5 dogs
  Plasma concentrations of ivermectin, Mean: 0.783 ng/mL
[1]; Cardomec oral 6 μg.kg^−1, fasted dogs, 24 h, mean of 5 dogs
  Plasma concentrations of ivermectin, Mean: 0.525 ng/mL
[1]; Cardomec oral 6 μg.kg^−1, fasted dogs, 32 h, mean of 5 dogs (BLQ taken as 0)
  Plasma concentrations of ivermectin, Mean: 0.338 ng/mL
[1]; Cardomec oral 6 μg.kg^−1, fasted dogs, D 2, mean of 5 dogs (ND included as BLQ = 0)
  Plasma concentrations of ivermectin, Mean: 0.268 ng/mL
[1]; Cardomec oral 6 μg.kg^−1, fasted dogs, D 3, mean of 5 dogs (ND included as BLQ = 0)
  Plasma concentrations of ivermectin, Mean: 0.173 ng/mL
[1]; Cardomec oral 6 μg.kg^−1, fasted dogs, D 4, mean of 5 dogs (ND, BLQ taken as 0)
  Plasma concentrations of ivermectin, Mean: 0.108 ng/mL
[1]; Cardomec oral 6 μg.kg^−1, fasted dogs, D 5, mean of 5 dogs, one value above the limit of quantification
  Plasma concentrations of ivermectin, Mean: BLQ* (Below the Limit of Quantification (100 pg.ml^−1))
[1]; Cardomec oral 6 μg.kg^−1, fasted dogs, D 7, mean of 5 dogs, one value above the limit of quantification
  Plasma concentrations of ivermectin, Mean: BLQ* (Below the Limit of Quantification (100 pg.ml^−1))
[1]; Cardomec oral 6 μg.kg^−1, fasted dogs, D 9, mean of 5 dogs
  Plasma concentrations of ivermectin, Mean: BLQ (Below the Limit of Quantification (100 pg.ml^−1))
[1]; Cardomec oral 6 μg.kg^−1, fasted dogs, D 14, mean of 5 dogs
  Plasma concentrations of ivermectin, Mean: BLQ (Below the Limit of Quantification (100 pg.ml^−1))
[1]; Cardomec oral 6 μg.kg^−1, fasted dogs, D 21, mean of 5 dogs
  Plasma concentrations of ivermectin, Mean: BLQ (Below the Limit of Quantification (100 pg.ml^−1))
[1]; [5]
  AUC(0-t): 3246 pg·days/mL and 1545 pg·days/mL and 743 pg·days/mL and 1949 pg·days/mL and 187 pg·days/mL
  AUC(0-∞): 3789 pg·days/mL and 1813 pg·days/mL and 1027 pg·days/mL and 2282 pg·days/mL and 382 pg·days/mL
  Cmax: 2.964 ng/mL and 0.911 ng/mL and 0.557 ng/mL and 1.955 ng/mL and 0.422 ng/mL
  tmax: 3 h (2×) and 12 h (2×) and 4 h
  t½: 64.5 h and 33.5 h and 37.5 h and 39.2 h and 26.0 h and 64.6 h and 33.6 h and 37.4 h and 39.1 h and 25.9 h
[2]; [6]
  AUC(0-t), Mean: 226900 pg·days/mL
  AUC(0-∞), Mean: 227897 pg·days/mL
  Cmax, Mean: 28.935 ng/mL and ~30 ng/mL
[2]; 0
  Plasma concentrations of ivermectin: BLQ (The limit of quantification was 100 pg.ml^−1)
[2]; 0, mean of 5 dogs
  Plasma concentrations of ivermectin, Mean: BLQ (The limit of quantification was 100 pg.ml^−1)
[2]; 0.25 h
  Plasma concentrations of ivermectin: 275 pg.ml^−1 and BLQ (The limit of quantification was 100 pg.ml^−1) (2×) and 158 pg.ml^−1 and 1123 pg.ml^−1
[2]; 0.25 h, mean of 5 dogs (BLQ taken as 0)
  Plasma concentrations of ivermectin, Mean: 0.311 ng/mL
[2]; 0.5 h
  Plasma concentrations of ivermectin: 531 pg.ml^−1 and BLQ (The limit of quantification was 100 pg.ml^−1) (2×) and 183 pg.ml^−1 and 1757 pg.ml^−1
[2]; 0.5 h, mean of 5 dogs (BLQ taken as 0)
  Plasma concentrations of ivermectin, Mean: 0.494 ng/mL
[2]; 1 h
  Plasma concentrations of ivermectin: 952 pg.ml^−1 and BLQ (The limit of quantification was 100 pg.ml^−1) and 272 pg.ml^−1 and 1487 pg.ml^−1 and 257 pg.ml^−1
[2]; 1 h, mean of 5 dogs (BLQ taken as 0)
  Plasma concentrations of ivermectin, Mean: 0.594 ng/mL
[2]; 4 h
  Plasma concentrations of ivermectin: 3148 pg/mL and 935 pg/mL and 2519 pg/mL and 2788 pg/mL and 1621 pg/mL
[2]; 4 h, mean of 5 dogs
  Plasma concentrations of ivermectin, Mean: 2.202 ng/mL
[2]; 10 h
  Plasma concentrations of ivermectin: 9438 pg/mL and 2799 pg/mL and 7471 pg/mL and 6881 pg/mL and 2322 pg/mL
[2]; 10 h, mean of 5 dogs
  Plasma concentrations of ivermectin, Mean: 5.782 ng/mL
